Data reported in patent US8084486B2, “Substituted arylpyrazoles” (Pfizer Limited, priority 2003, dated 2011).

Test system: Ctenocephalides felis
Assay: flea membrane feed screen
Parameters: species or system Ctenocephalides felis (cat flea)
Conditions: at 30 μg/ml
Method: The flea membrane feed screen is used to measure the biological activities of the compounds claimed. The assay involves in vitro testing against Ctenocephalides felis conducted according to the following general procedure.
Fleas are cultured in vitro using dog blood. 25-30 adult Ctenocephalides felis (cat flea) were collected and placed in a test chamber (50 ml polystyrene tube with fine nylon mesh sealing the end). Citrated dog blood was prepared by adding aqueous sodium citrate solution (10 ml, 20% w/v, 20 g sodium citrate in 100 ml water) to dog blood (250 ml). Test compounds were dissolved in dimethylsulfoxide to give a working stock solution of 4 mg/ml. The stock solution (12.5 μl) was added to citrated dog blood (5 ml) to give an initial test concentration of 10 μg/ml. For testing at 30 μg/ml, working stock solutions of 12 mg/ml were prepared.
Citrated dog blood containing the test compound (5 ml, 10 μg/ml) was placed into a plastic petri dish lid, which was kept at 37° C. on a heated pad. Parafilm was stretched over the open top to form a tight membrane for the fleas to feed through. The test chamber containing the fleas was placed carefully onto the parafilm membrane and the fleas commenced feeding. […]
The fleas were observed and the percentage of fleas killed recorded. […]

N#Cc1nn(-c2c(Cl)cc(C(F)(F)F)cc2Cl)c(N)c1C1CC1(Br)Br (stereo not shown) [5-amino-3-cyano-4-(2,2-dibromocyclopropyl)-1-(2,6-dichlorophenyl-4-trifluoromethyl-)pyrazole]
activity in the ED80 flea screen: inactive
